From patent publication US20250074943A1, “DLL3 BINDING PEPTIDES AND USES THEREOF” (AMGEN INC., priority 2021, published 2025)
Numbered stars: 1 amine (or outer) side, 2 acyl side, 3 side chain; on linkers, the order of the positions; unused ones are H or OH. Bridge positions count the residues as written; N and C are the ends. Square brackets hold non-standard residues; d marks the D form. Peptide text beside a SMILES is read from it. * marks the point of attachment. X13 = NCCCOCCOCCOCCCNC(=O)CCC(=O)NCCCOCCOCCOCCCNC(=O)CCC(=O)NCCCC[C@H](NC(=O)CCC(=O)NCCCOCCOCCOCCCN*)C(N)=O; X6 = CCOCCOCCOCCOCc1cn(CCCC[C@@H]2CC(=O)C(CC(=O)NCCCOCCOCCOCCCN*)NC2=O)nn1; X11 = NCCCC[C@H](NC(=O)CCC(=O)NCCCOCCOCCOCCCN*)C(N)=O; X4 = CC(C(=O)CN[*:1])[C@@H](C(=O)[*:2])[C@H](C)O; X5 = O=C([C@@H](CC1=CCc2ccccc21)N[*:1])[*:2]; Isobutyryl = CC(C)C(=O)*

How the values were obtained:
DLL3 = molecular target: T1, DLL3 (Homo sapiens, UniProt Q9NYJ7); assay: Binding of peptides with linkers and/or fluorescent agent to DLL3 (BLI, SPR; Table 6)
T1 construct: The recombinant DLL3 ectodomain (rhDLL3-Fc) was biotinylated; Fc
T1 sequence (Q9NYJ7 27-492 limits assumed): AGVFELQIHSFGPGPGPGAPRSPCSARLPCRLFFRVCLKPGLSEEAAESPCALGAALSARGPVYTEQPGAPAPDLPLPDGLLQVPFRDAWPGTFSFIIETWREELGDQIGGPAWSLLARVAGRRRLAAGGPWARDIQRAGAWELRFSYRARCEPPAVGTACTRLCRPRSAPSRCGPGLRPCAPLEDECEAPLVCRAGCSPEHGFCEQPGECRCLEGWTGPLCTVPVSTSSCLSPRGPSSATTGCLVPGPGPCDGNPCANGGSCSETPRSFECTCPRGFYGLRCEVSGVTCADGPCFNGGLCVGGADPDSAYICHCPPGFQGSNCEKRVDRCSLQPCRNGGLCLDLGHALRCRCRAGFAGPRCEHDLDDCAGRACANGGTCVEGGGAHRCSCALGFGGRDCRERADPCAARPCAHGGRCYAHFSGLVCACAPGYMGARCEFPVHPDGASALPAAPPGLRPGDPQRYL
Method: (§1) Binding kinetic assays were performed using Bio-layer interferometry (BLI) technology. The recombinant DLL3 ectodomain (rhDLL3-Fc) was biotinylated using EZ-Link Sulfo-NHS-LC-LC-Biotin Kit according to the manufacturer's protocol (Pierce by Thermo Fisher Scientific). The recombinant protein was incubated with an excess of NHS-LC-LC Biotin ester, in a molar ratio of 1:3 (protein: biotin), at 25° C. for 90 min. The un-reacted biotin ester was removed by subsequent buffer exchange on 0.5 ml Zeba spin desalting columns 7K MWCO (Pierce by Thermo Fisher Scientific).
The off-rate screening of the peptides was done using a Biacore T200 instrument (Cytiva, Sweden). […] Peptides were diluted at 300 nM in PBS-P+1× buffer (Cytiva, Sweden) supplemented with 1% DMSO and 0.1% BSA, then injected over the ligand for five minutes at 30 μl/min, finally dissociation allowed for 1 h. Sensorgrams were analyzed by Biacore T200 Evaluation Software 3.0 (Cytiva, Sweden): specific binding was obtained by subtracting unspecific binding to naked biosensors and a zero analyte concentration made of binding assay buffer (double referencing). Kinetic parameters of koff were measured using a global fitting according to 1:1 Langmuir binding isotherm equation.

[1] = molecular target: T2, cell-surface hDLL3 (CHO cells) (Homo sapiens, UniProt Q9NYJ7); assay: Flow cytometry binding of fluorescence labelled peptides; assay type: cell-based; conditions: 100 nM AF647-labelled peptide; FIG. 1
T2 construct: expressed in transfected cells; host or cells: CHO (CHO-huDLL3)
T2 sequence (Q9NYJ7 27-618): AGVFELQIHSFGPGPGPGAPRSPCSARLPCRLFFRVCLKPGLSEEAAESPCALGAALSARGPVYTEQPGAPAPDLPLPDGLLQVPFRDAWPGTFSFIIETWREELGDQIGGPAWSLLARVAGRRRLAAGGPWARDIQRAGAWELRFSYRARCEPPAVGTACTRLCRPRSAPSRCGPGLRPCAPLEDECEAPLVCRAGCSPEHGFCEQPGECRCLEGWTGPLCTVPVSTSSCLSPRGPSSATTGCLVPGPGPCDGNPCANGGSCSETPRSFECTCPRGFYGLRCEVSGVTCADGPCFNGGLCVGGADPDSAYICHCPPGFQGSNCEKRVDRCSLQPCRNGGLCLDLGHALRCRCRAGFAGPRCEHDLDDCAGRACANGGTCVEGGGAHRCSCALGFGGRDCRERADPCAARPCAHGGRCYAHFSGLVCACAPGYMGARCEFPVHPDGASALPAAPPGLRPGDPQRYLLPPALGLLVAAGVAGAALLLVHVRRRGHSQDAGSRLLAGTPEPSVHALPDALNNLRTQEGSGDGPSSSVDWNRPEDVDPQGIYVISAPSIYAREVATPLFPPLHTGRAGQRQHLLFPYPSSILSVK
Method: HEK293-huDLL3, CHO-huDLL3 and the corresponding parental cell lines were detached with EDTA 2.5 mM and re-suspended at 1.8×10^6 cells/ml in FACS buffer (1×PBS, 2% FBS), distributed at 500 μl per testing tube and pelleted 5 min at 1300 rpm in a Heraeus Multifuge X3R centrifuge. […] After 1 hour incubation at room temperature, cells were washed once with FACS buffer, centrifuged and re-suspended in FACS buffer/1% formaldehyde. Samples were acquired on a FACS ARIA flow cytometer (Becton Dickinson) and data analysed by FACS Express software.

[2] = molecular target: T3, native huDLL3 on the surface of cells (CHO cells) (Homo sapiens, UniProt Q9NYJ7); assay: Flow cytometry competition with AF647-labelled peptide; assay type: cell-based; conditions: for efficiency in competing the binding of the AF647-labelled PepSP1146: compared with monomer PepSP1146
T3 construct: expressed in transfected cells; host or cells: CHO (CHO-huDLL3)
T3 sequence (Q9NYJ7 27-618): T2 sequence (Q9NYJ7 27-618)
Method: HEK293-huDLL3, CHO-huDLL3 and the corresponding parental cell lines were detached with EDTA 2.5 mM and re-suspended at 1.8×10^6 cells/ml in FACS buffer (1×PBS, 2% FBS), distributed at 500 μl per testing tube and pelleted 5 min at 1300 rpm in a Heraeus Multifuge […] centrifuge.

rhDLL3-Fc = molecular target: T4, rhDLL3-Fc (Homo sapiens, UniProt Q9NYJ7); assay: SPR binding / off-rate screening (Biacore T200); conditions: Table 7, curve fitting of SPR sensorgrams; for koff: read-out: koff; for kon: read-out: kon
T4 construct: The recombinant DLL3 ectodomain (rhDLL3-Fc) was biotinylated; Fc
T4 sequence (Q9NYJ7 27-492 limits assumed): T1 sequence (Q9NYJ7 27-492 limits assumed)
Method: as §1, with “Binding kinetic assays were performed using Bio-layer interferometry (BLI) technology.” left out
The off-rate screening of the peptides was done using a Biacore T200 instrument (Cytiva, Sweden). […] Sensorgrams were analyzed by Biacore T200 Evaluation Software 3.0 (Cytiva, Sweden): specific binding was obtained by subtracting unspecific binding to naked biosensors and a zero analyte concentration made of binding assay buffer (double referencing). […]

Row | SMILES | Kd (DLL3) [nM] | efficiency in competing the binding of the AF647-labelled PepSP1146 [2] | koff (rhDLL3-Fc) [s⁻¹] | kon (rhDLL3-Fc) [M⁻¹ s⁻¹] | RT (DLL3) | also measured
1 | CC(C)[C@H](NC(=O)[C@@H](NC(=O)[C@H](CCC(=O)O)NC(=O)[C@H](C)N)[C@@H](C)O)C(=O)N[C@@H](CCC(=O)O)C(=O)N[C@@H](Cc1ccccc1)C(=O)N[C@@H](Cc1c[nH]c2ccccc12)C(=O)NCC(=O)N[C@H]1CSSC[C@@H](C(=O)N[C@@H](Cc2c[nH]c3ccccc23)C(=O)N[C@@H](Cc2c[nH]c3ccccc23)C(=O)NCCCOCCOCCOCCCNC(=O)CCC(=O)N[C@@H](CCCCn2nnc3c2-c2ccccc2CN(C(=O)CCNC(=O)CCCCC[N+]2=C(/C=C/C=C/C=C4/N(CCCS(=O)(=O)O)c5ccc(S(=O)(=O)O)cc5C4(C)C)C(C)(CCCS(=O)(=O)O)c4cc(S(=O)(=O)[O-])ccc42)c2ccccc2-3)C(N)=O)NC(=O)[C@H]([C@@H](C)O)NC(=O)[C@H](CCC(=O)O)NC(=O)[C@H](CC(N)=O)NC(=O)CNC(=O)[C@H](Cc2c[nH]c3ccccc23)NC(=O)[C@H]([C@@H](C)O)NC(=O)CNC(=O)[C@H]([C@@H](C)O)NC1=O (stereo partly drawn) [PepSP1215] | 11.6 | – | – | – | – | binding to cells expressing hDLL3 [1]: binding
2 | CC(C)[C@H](NC(=O)[C@@H](NC(=O)[C@H](CCC(=O)O)NC(=O)[C@H](C)N)[C@@H](C)O)C(=O)N[C@@H](CCC(=O)O)C(=O)N[C@@H](Cc1ccccc1)C(=O)N[C@@H](Cc1c[nH]c2ccccc12)C(=O)NCC(=O)N[C@H]1CSSC[C@@H](C(=O)N[C@@H](Cc2c[nH]c3ccccc23)C(=O)N[C@@H](Cc2c[nH]c3ccccc23)C(=O)NCCCOCCOCCOCCCNC(=O)CCC(=O)N[C@@H](CCCCn2cc(COCCOCCOCCOCCOCCOCCOCCOCCOCCOCCOCCOCCOCCOCc3cn(CCCC[C@H](NC(=O)CCC(=O)NCCCOCCOCCOCCCNC(=O)[C@H](Cc4c[nH]c5ccccc45)NC(=O)[C@H](Cc4c[nH]c5ccccc45)NC(=O)[C@@H]4CSSC[C@H](NC(=O)CNC(=O)[C@H](Cc5c[nH]c6ccccc56)NC(=O)[C@H](Cc5ccccc5)NC(=O)[C@H](CCC(=O)O)NC(=O)[C@@H](NC(=O)[C@@H](NC(=O)[C@H](CCC(=O)O)NC(=O)[C@H](C)N)[C@@H](C)O)C(C)C)C(=O)N[C@@H]([C@@H](C)O)C(=O)NCC(=O)N[C@@H]([C@@H](C)O)C(=O)N[C@@H](Cc5c[nH]c6ccccc56)C(=O)NCC(=O)N[C@@H](CC(N)=O)C(=O)N[C@@H](CCC(=O)O)C(=O)N[C@@H]([C@@H](C)O)C(=O)N4)C(N)=O)nn3)nn2)C(N)=O)NC(=O)[C@H]([C@@H](C)O)NC(=O)[C@H](CCC(=O)O)NC(=O)[C@H](CC(N)=O)NC(=O)CNC(=O)[C@H](Cc2c[nH]c3ccccc23)NC(=O)[C@H]([C@@H](C)O)NC(=O)CNC(=O)[C@H]([C@@H](C)O)NC1=O [PepSP1271] | – | higher efficiency | 0.00028 | 104000 | – | IC50 [2]: 10 nM; Kd (rhDLL3-Fc): 3 nM
3 | CCOCCOCCOCCOCc1cn(CCCC[C@@H]2CC(=O)C(CC(=O)NCCCOCCOCCOCCCNC(=O)[C@@H](Cc3c[nH]c4ccccc34)NC(=O)[C@@H](CC3=CCc4ccccc43)NC(=O)[C@H]3CSSC[C@@H](NC(=O)CNC(=O)[C@@H](Cc4c[nH]c5ccccc45)NC(=O)[C@@H](Cc4ccccc4)NC(=O)[C@@H](CCC(=O)O)NC(=O)[C@H](NC(=O)[C@H](NC(=O)[C@@H](CCC(=O)O)NC(=O)C(C)C)[C@H](C)O)C(C)C)C(=O)N[C@H]([C@H](C)O)C(=O)NCC(=O)C(C)[C@H]([C@H](C)O)C(=O)N[C@H](Cc4c[nH]c5ccccc45)C(=O)NCC(=O)N[C@H](CC(N)=O)C(=O)N[C@H](CCC(=O)O)C(=O)N[C@H]([C@H](C)O)C(=O)N3)NC2=O)nn1 (stereo partly drawn) [PepSP1272] (Isobutyryl-[dE][dT][dV][dE][dF][dW]G[dC][dT][X4][dW]G[dN][dE][dT][dC][X5][dW]-X6; disulfide 8-16) | – | higher efficiency | 5.5e-05 | 90000 | – | –

Continued, in another order:

Row | Kd (DLL3) [nM] | efficiency in competing the binding of the AF647-labelled PepSP1146 [2] | koff (rhDLL3-Fc) [s⁻¹] | kon (rhDLL3-Fc) [M⁻¹ s⁻¹] | RT (DLL3) | SMILES | also measured
4 | – | – | – | – | 369 | CC(=O)N[C@@H](C)C(=O)N[C@@H](CCC(=O)O)C(=O)N[C@H](C(=O)N[C@H](C(=O)N[C@@H](CCC(=O)O)C(=O)N[C@@H](Cc1ccccc1)C(=O)N[C@@H](Cc1c[nH]c2ccccc12)C(=O)NCC(=O)N[C@H]1CSSC[C@@H](C(=O)N[C@@H](Cc2c[nH]c3ccccc23)C(=O)N[C@@H](Cc2c[nH]c3ccccc23)C(=O)NCC(=O)NCC(=O)NCCCOCCOCCOCCCNC(=O)CCC(=O)N[C@@H](CCCCN)C(N)=O)NC(=O)[C@H]([C@@H](C)O)NC(=O)[C@H](CCC(=O)O)NC(=O)[C@H](CC(N)=O)NC(=O)CNC(=O)[C@H](Cc2c[nH]c3ccccc23)NC(=O)[C@H]([C@@H](C)O)NC(=O)CNC(=O)[C@H]([C@@H](C)O)NC1=O)C(C)C)[C@@H](C)O [PepSP1321] (Ac-AETVEFWGCTGTWGNETCWWGG-X11; disulfide 9-18) | –
5 | 29 ± 16 | – | – | – | 189.3 ± 73^ | CC(=O)N[C@@H](C)C(=O)N[C@@H](CCC(=O)O)C(=O)N[C@H](C(=O)N[C@H](C(=O)N[C@@H](CCC(=O)O)C(=O)N[C@@H](Cc1ccccc1)C(=O)N[C@@H](Cc1c[nH]c2ccccc12)C(=O)N[C@@H](Cc1c[nH]c2ccccc12)C(=O)N[C@H]1CSSC[C@@H](C(=O)N[C@H](C(=O)N[C@@H](Cc2c[nH]c3ccccc23)C(=O)NCC(=O)NCC(=O)NCCCOCCOCCOCCCNC(=O)CCC(=O)N[C@@H](CCCCN)C(N)=O)[C@@H](C)O)NC(=O)[C@H]([C@@H](C)O)NC(=O)[C@H](Cc2c[nH]c3ccccc23)NC(=O)[C@H](CC(N)=O)NC(=O)[C@H](CCC(=O)O)NC(=O)[C@H](CO)NC(=O)[C@H](CC(N)=O)NC(=O)CNC(=O)[C@H](CC(N)=O)NC1=O)C(C)C)[C@@H](C)O [PepSP1324] (Ac-AETVEFWWCNGNSENWTCTWGG-X11; disulfide 9-18 (inferred)) | –
6 | 42 ± 8 | – | – | – | 198.9 ± 41.1 | CC(=O)N[C@@H](C)C(=O)N[C@@H](CCC(=O)O)C(=O)N[C@H](C(=O)N[C@H](C(=O)N[C@@H](CCC(=O)O)C(=O)N[C@@H](Cc1ccccc1)C(=O)N[C@@H](Cc1c[nH]c2ccccc12)C(=O)N[C@@H](Cc1c[nH]c2ccccc12)C(=O)N[C@H]1CSSC[C@@H](C(=O)N[C@H](C(=O)N[C@@H](Cc2c[nH]c3ccccc23)C(=O)NCC(=O)NCC(=O)NCCCOCCOCCOCCCNC(=O)CCC(=O)N[C@@H](CCCCNC(=O)CCC(=O)NCCCOCCOCCOCCCNC(=O)CCC(=O)NCCCOCCOCCOCCCN)C(N)=O)[C@@H](C)O)NC(=O)[C@H]([C@@H](C)O)NC(=O)[C@H](Cc2c[nH]c3ccccc23)NC(=O)[C@H](CC(N)=O)NC(=O)[C@H](CCC(=O)O)NC(=O)[C@H](CO)NC(=O)[C@H](CC(N)=O)NC(=O)CNC(=O)[C@H](CC(N)=O)NC1=O)C(C)C)[C@@H](C)O [PepSP1342] (Ac-AETVEFWWCNGNSENWTCTWGG-X13; disulfide 9-18 (inferred)) | –
